Reference: publication PMC11249646, “Small-Molecule Disruptors of the Interaction between Calcium- and Integrin-Binding Protein 1 and Integrin αIIbβ3 as Novel Antiplatelet Agents” (ACS Pharmacology & Translational Science, 2024)
Like-named read-outs stand apart in the source and are kept apart here.

What was measured:
[1] = target: T1, CIB1 and αIIb interaction (GST-CIB1 : F-αIIb peptide) (Homo sapiens, UniProt Q99828); experiment: FP assay, 384-well format (screen); format: binding; set-up: 384-well SCREEN Efficacy (%): concentration or dose not given beside the values; details: for 384-well SCREEN Efficacy (%) / 384-well SCREEN Confirm? / IC50: F-αIIb peptide; for 384-well SCREEN Confirm?: YES/NO; for IC50: read-out: 384-well SCREEN IC50
T1 construct: made in house; host or cells: BL-21 plus RIL cells (E. coli)
T1 sequence (Q99828 1-191): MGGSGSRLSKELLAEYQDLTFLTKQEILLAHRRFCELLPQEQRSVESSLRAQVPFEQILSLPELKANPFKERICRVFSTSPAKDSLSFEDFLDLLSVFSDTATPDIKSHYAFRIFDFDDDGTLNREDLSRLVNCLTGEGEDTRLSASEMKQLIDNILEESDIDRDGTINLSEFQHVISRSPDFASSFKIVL

[2] = target: T2, CIB1 and αIIb interaction (CIB1-GST : F-αIIb peptide) (Homo sapiens, UniProt Q99828); experiment: FP assay, 1536-well qHTS format (primary and confirmatory screen); format: binding; details: for CONFIRMATORY SCREEN Confirm?: YES/NO call; for CONFIRMATORY SCREEN Curve Class: qHTS curve class; for CONFIRMATORY SCREEN Curve Class / Curve Class: negative sign = inhibitory curve; for CONFIRMATORY SCREEN Efficacy (%) / Efficacy (%): negative = inhibition
T2 construct: made in house; host or cells: BL-21 plus RIL cells (E. coli)
T2 sequence (Q99828 1-191): T1 sequence (Q99828 1-191)

[3] = target: T3, GST-CIB1 : F-αIIb peptide (Homo sapiens, UniProt Q99828); experiment: FP assay in the presence of glutathione (GSH), thiol reactivity; format: binding; details: for GSH/CIB1 IC50 ratio: ratio of GSH (+) IC50 to GSH (-) IC50
T3 construct: made in house; host or cells: BL-21 plus RIL cells (E. coli)
T3 sequence (Q99828 1-191): T1 sequence (Q99828 1-191)

[4] = target: T4, GST-CIB1:F-αIIb interaction (Homo sapiens, UniProt Q99828); experiment: Gel-based (in-gel) binding assay; details: 1 μM GST-CIB1, 400 nM F-αIIb; 60 μM, 1:2, 4-points
T4 construct: made in house; host or cells: BL-21 plus RIL cells (E. coli)
T4 sequence (Q99828 1-191): T1 sequence (Q99828 1-191)

[5] = target: T5, GST-CIB1 : F-scrambled peptide (Homo sapiens, UniProt Q99828); experiment: FP scrambled-peptide counter screen, 384-well format; format: binding; details: F-scrambled peptide; for 384-well COUNTERSCREEN Confirm?: *: Curve in opposite direction; for IC50: read-out: 384-well COUNTERSCREEN IC50
T5 construct: made in house; host or cells: BL-21 plus RIL cells (E. coli)
T5 sequence (Q99828 1-191): T1 sequence (Q99828 1-191)

[6] = target: T5, GST-CIB1 : F-scrambled peptide; experiment: FP scrambled-peptide counter screen, 1536-well format; format: binding; details: scrambled-peptide counterscreen; for COUNTERSCREEN Confirm?: YES/NO call; for COUNTERSCREEN Curve Class: qHTS curve class; for IC50: read-out: COUNTERSCREEN IC50
[7] = confirmatory screen, read-out: CONFIRMATORY SCREEN IC50
[8] = FP assay in the presence of glutathione (GSH +), read-out: GSH (+) Assay IC50
[9] = FP assay without glutathione (GSH -), read-out: GSH (-) Assay IC50
[10] = qHTS primary screen hits, Table S2
[11] = qHTS primary screen hits, Table S2, several classes where COUNT > 1
[12] = qHTS primary screen hits, Table S2, read-out: IC50
[13] = qHTS FP screen hits, Table S2, one class per curve where COUNT > 1
[14] = qHTS FP screen hits, Table S2, read-out: IC50

| SMILES | 384-well SCREEN Efficacy (%) [1] [%] | 384-well SCREEN Confirm? [1] | IC50 [1] [µM] | CONFIRMATORY SCREEN Confirm? ([2]; confirmatory screen) | CONFIRMATORY SCREEN Curve Class ([2]; confirmatory screen) | CONFIRMATORY SCREEN Efficacy (%) ([2]; confirmatory screen) | IC50 [2, 7] [µM] | 384-well COUNTERSCREEN Efficacy (%) [5] [%] | 384-well COUNTERSCREEN Confirm? [5] | IC50 [5] [µM] | COUNTERSCREEN Efficacy (%) [6] [%] | COUNTERSCREEN Confirm? [6] | COUNTERSCREEN Curve Class [6] | Efficacy (%) [2, 10] [%] | IC50 [2, 12] [µM] | Efficacy (%) ([2]; qHTS FP screen hits, Table S2) | Curve Class [2, 13] | IC50 [2, 14] [µM] | also measured |
| --- | --- | --- | --- | --- | --- | --- | --- | --- | --- | --- | --- | --- | --- | --- | --- | --- | --- | --- | --- |
| CCN(CC)C(=S)SSC(=S)N(CC)CC [NCGC00016000-13, disulfiram, reference compound] | 95 | YES | 1.6 | YES | -1.2 | -72 | 14.1 | 34 | YES | > 120 | -13 | YES | 4 | – | – | – | – | – | IC50 shift in the presence of GSH [3]: 8.5 fold; IC50 [3, 8]: 27 µM; IC50 [3, 9]: 3.2 µM; GSH/CIB1 IC50 ratio [3]: 8.5; Active in Gel Assay? [4]: YES |
| CN(C)C(=S)SSC(=S)N(C)C [NCGC00091563-02, thiram, reference compound] | 78 | YES | 2.8 | – | – | – | – | 44 | YES | > 120 | – | – | – | – | – | – | – | – | IC50 [3, 8]: 8.3 µM; IC50 [3, 9]: 1 µM; GSH/CIB1 IC50 ratio [3]: 8.3; IC50 shift in the presence of GSH ([3]; with vs without 10 μM reduced GSH): 8.3 fold; Active in Gel Assay? [4]: YES |
| S=C(SSC(=S)N1CCCCC1)N1CCCCC1 [NCGC00181776-01] | – | – | – | – | – | – | – | – | – | – | – | – | – | – | – | – | – | – | IC50 ([3]; GSH (+) Assay IC50, FP assay in the presence of glutathione (GSH +)): > 120 µM; IC50 ([3]; GSH (-) Assay IC50, FP assay without glutathione (GSH -)): 4.6 µM; GSH/CIB1 IC50 ratio [3]: 30.8 |
| O=[N+]([O-])c1cnc(Sc2nnc(O)n2-c2ccc3c(c2)OCCO3)s1 [NCGC00263145-01] | 67 | YES | 2.2 | YES | -1.4 | -64 | 11.2 | 89 | YES | 89.1 | 15 | YES | 4 | -40 | 21.5 | – | – | – | Curve Class [2, 11]: -2.2; Active in Gel Assay? [4]: YES |
| Nc1c(Cc2ccc(S(N)(=O)=O)cc2)c(-c2cccc(-c3ccccc3)c2)nn1-c1nc(C(=O)O)cs1.O=C(O)C(F)(F)F [NCGC00356752-02] | 49 | YES | 14.1 | YES | -2.2 | -78 | 39.8 | 34 | Inconclusive | 1.6 | 0 | YES | 4 | – | – | -54 | -2.2 | 28.2 | Confirm and Selective? ([1]; selective toward αIIb: negative curve class and/or IC50 ratio of >3-fold and/or >2-fold efficacy vs scrambled peptide): Inconclusive |
| O=C1C=CC(=O)N1c1cccc(Br)c1 [NCGC00373120-01] | 42 | YES | 10 | YES | -1.2 | -38 | 8.9 | 74 | YES | > 120 | 14 | YES | 4 | -54 | 7.1 | – | – | – | Curve Class [2, 10]: -1.2 |
| O=C(O)c1cccc(CN2C(=O)/C(=C(\c3ccccc3)c3ccc(Cl)cc3)c3ccccc32)c1 [NCGC00378823-01] | 70 | YES | 63.4 | YES | -2.2 | -63 | 44.7 | 0 | YES | > 120 | -27 | YES | 4 | – | – | -34 | -1.2 | 39.8 | – |
| CC[S+]([O-])c1nc(-c2cccc(OCc3ccccc3)c2)cc(C(F)(F)F)n1 (stereo not shown) [NCGC00379201-03] | 70 | YES | 0.32 | YES | -1.2 | -63 | 0.4 | 30 | YES* | > 120 | 21 | YES | 4 | – | – | -39 | -1.2 | 2.2 | – |
| COC(=O)C12C(=O)C(C)(O)C(=O)C1(C)C(C)=CC1C34CCC(OC3=O)C(C)(CO)C4CCC12C (stereo not shown) [NCGC00380147-01] | 80 | YES | 32.8 | YES | -2.2 | -42 | 17.8 | -50 | – | 26.4 | -27 | YES | 4 | – | – | -32 | -2.2 | 28.2 | – |
| Cc1ccc(-c2cc(-c3nn(-c4nc(C(=O)O)cs4)c(CC4CC4)c3Cc3ccc(S(N)(=O)=O)c(F)c3)ccc2F)s1.Cl [NCGC00388587-02] | 84 | – | > 120 | YES | -2.4 | -66 | 20 | 242 | – | 50.1 | 32 | YES | 4 | -23 | 28.2 | – | – | – | Curve Class [2, 11]: -1.4 |
| Cc1ccc(-c2cc(-c3nn(-c4nc(C(=O)O)cs4)c(CC4CC4)c3Cc3ccc(S(N)(=O)=O)c(F)c3)ccc2F)o1 [NCGC00389082-01] | 60 | YES | 4.5 | YES | -3 | -77 | 28.2 | 158 | YES | 39.8 | 154 | YES | – | -40 | 22.4 | – | – | – | Curve Class [2, 11]: -2.4; IC50 [6]: 79.4 µM |
| COc1ccc2c(c1)C=C1Cn3c-2c(C2CCCCC2)c2ccc(cc23)C(=O)NS(=O)(=O)N(C)CCOCCN(C)C1=O [NCGC00482982-02] | 35 | YES | 30.1 | YES | -2.2 | -52 | 39.8 | 25 | YES* | > 120 | 101 | YES | – | – | – | -35 | -2.2 | 56.2 | IC50 [6]: 70.8 µM |
| N#Cc1ccc(N2N=C3c4ccc(C(=O)O)cc4CC[C@@H]3[C@@H]2C2CCCC2)cc1Cl [NCGC00485023-01] | -15 | – | – | YES | -2.4 | -30 | – | 40 | – | – | 165 | YES | – | – | – | -32 | -1.2 | – | – |
